The structures appear in SMILES notation.

This is an account of results in patent US4393228A, “Epoxysuccinic acid derivatives” (Taisho Pharmaceutical Co., Ltd., priority 1977, dated 1983).

The assay concerns the target T1, papain (Carica papaya, UniProt P00784).
T1 construct: purchased Sigma Chem. Co
T1 sequence (P00784 134-345): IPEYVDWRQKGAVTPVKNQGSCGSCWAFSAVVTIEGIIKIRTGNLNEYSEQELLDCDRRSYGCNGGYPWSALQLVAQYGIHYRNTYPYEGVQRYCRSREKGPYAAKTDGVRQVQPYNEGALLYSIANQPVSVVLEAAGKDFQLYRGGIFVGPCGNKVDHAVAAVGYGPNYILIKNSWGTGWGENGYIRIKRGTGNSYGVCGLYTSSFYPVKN
As to the kind of experiment: Papain inhibitory activity (milk casein digestion). In kind it is biochemical. As to conditions: papain 80 μg/ml 0.5 ml, cysteine, pH 6.8, 1% milk casein, 40° C., 10 minutes. On the procedure:
Papain inhibitory activity of the compounds of this invention was assayed as follows: To 0.5 ml of a solution of papain (80 μg/ml, Sigma Chem. Co., 2x cry.), were added 0.25 ml of 40 mM cysteine dissolved in 20 mM disodium ethylenediamine tetraacetic acid solution adjusted pH to 6.8 with sodium hydroxide and 0.25 ml of 33 mM phosphate buffer (pH 6.8) with or without inhibitor. After incubation at 40° C. for 15 minutes, the resulting mixture was added to 5 ml of 1% milk casein solution in the same buffer as described above, and further incubated at 40° C. for 10 minutes. Then the mixture was mixed with 5 ml of 0.44 M trichloroacetic acid solution and followed by filtration with a sheet of Toyo filter paper No. 4. The extinction of the filtrate was read at 280 nm. The percent inhibition was calculated from the formula, 100 x (B-A)/B; wherein B stands for the absorbance without inhibitor and A for the absorbance with inhibitor. The compound Nos. in Table 1 are as defined in Examples as described hereinafter.
Turning to `C[C@H]1CCCC[C@H]1OC(=O)[C@@H]1O[C@H]1C(=O)O[C@@H]1CCCC[C@@H]1C` (relative stereo) [EP-3, di-2'-cis-methylcyclohexyl epoxysuccinate], the “ID50 (amount of inhibitor for 50% inhibition)” value was 2.12 γ.

With `C[C@H]1CCCC[C@H]1OC(=O)[C@@H]1O[C@H]1C(=O)O` (relative stereo) [EP-4, 2'-cis-methylcyclohexyl potassium epoxysuccinate], the “ID50 (amount of inhibitor for 50% inhibition)” value was 0.09 γ.

Consider `C[C@@H]1CCCC[C@H]1OC(=O)[C@@H]1O[C@H]1C(=O)O[C@@H]1CCCC[C@H]1C` (relative stereo) [EP-5, di-2'-trans-methylcyclohexyl epoxysuccinate], for which the “ID50 (amount of inhibitor for 50% inhibition)” value is reported as 2.36 γ.

Take `C[C@@H]1CCCC[C@H]1OC(=O)[C@@H]1O[C@H]1C(=O)O` (relative stereo) [EP-6, 2'-trans-methylcyclohexyl potassium epoxysuccinate]: the “ID50 (amount of inhibitor for 50% inhibition)” value is 0.09 γ.

With `O=C(O[C@@H]1CCCC[C@H]1Cl)[C@@H]1O[C@H]1C(=O)O[C@@H]1CCCC[C@H]1Cl` (relative stereo) [EP-7, di-2'-trans-chlorocyclohexyl epoxysuccinate], the “ID50 (amount of inhibitor for 50% inhibition)” value is 2.25 γ.

For the compound `O=C(O)[C@@H]1O[C@H]1C(=O)O[C@@H]1CCCC[C@H]1Cl` (relative stereo) [EP-8, 2'-trans-chlorocyclohexyl potassium epoxysuccinate], the “ID50 (amount of inhibitor for 50% inhibition)” value is 0.07 γ.

As for `C[C@H]1CC[C@H](OC(=O)[C@@H]2O[C@H]2C(=O)O[C@H]2CC[C@H](C)CC2)CC1` (relative stereo) [EP-15, di-4'-trans-methylcyclohexyl epoxysuccinate], the “ID50 (amount of inhibitor for 50% inhibition)” value was 1.69 γ.

For `C[C@H]1CC[C@H](OC(=O)[C@@H]2O[C@H]2C(=O)O)CC1` (relative stereo) [EP-16, 4'-trans-methylcyclohexyl potassium epoxysuccinate], the “ID50 (amount of inhibitor for 50% inhibition)” value is on record as 0.08 γ.

With `C[C@H]1CC[C@@H](OC(=O)[C@@H]2O[C@H]2C(=O)O)CC1` (relative stereo) [EP-18, 4'-cis-methylcyclohexyl potassium epoxysuccinate], the “ID50 (amount of inhibitor for 50% inhibition)” value is given as 0.08 γ.

Consider `O=C(O[C@H]1CC[C@H](Cl)CC1)[C@@H]1O[C@H]1C(=O)O[C@H]1CC[C@H](Cl)CC1` (relative stereo) [EP-19, di-4'-trans-chlorocyclohexyl epoxysuccinate], for which the “ID50 (amount of inhibitor for 50% inhibition)” value was 2.01 γ.

In the case of `O=C(O)[C@@H]1O[C@H]1C(=O)O[C@H]1CC[C@H](Cl)CC1` (relative stereo) [EP-20, 4'-trans-chlorocyclohexyl potassium epoxysuccinate], the “ID50 (amount of inhibitor for 50% inhibition)” value is listed as 0.06 γ.

Turning to `O=C(OC1CC1)[C@@H]1O[C@H]1C(=O)OC1CC1` (relative stereo) [EP-27, dicyclopropyl epoxysuccinate], the “ID50 (amount of inhibitor for 50% inhibition)” value was 20.00 γ.

As for `O=C(O)[C@@H]1O[C@H]1C(=O)OC1CC1` (relative stereo) [EP-28, cyclopropyl potassium epoxysuccinate], the “ID50 (amount of inhibitor for 50% inhibition)” value is 0.80 γ.

For `O=C(O[C@@H]1CCC[C@H]1Br)[C@@H]1O[C@H]1C(=O)O[C@@H]1CCC[C@H]1Br` (relative stereo) [EP-33, di-2'-trans-bromocyclopentylepoxysuccinate], the “ID50 (amount of inhibitor for 50% inhibition)” value is on record as 3.20 γ.

On to `O=C(O)[C@@H]1O[C@H]1C(=O)O[C@@H]1CCC[C@H]1Br` (relative stereo) [EP-34, 2'-trans-bromocyclopentyl potassium epoxysuccinate], for which the “ID50 (amount of inhibitor for 50% inhibition)” value is 0.07 γ.

`O=C(OC1CCCCCCC1)[C@@H]1O[C@H]1C(=O)OC1CCCCCCC1` (relative stereo) [EP-35, dicyclooctyl epoxysuccinate]: the “ID50 (amount of inhibitor for 50% inhibition)” value is 0.98 γ.

Turning to `O=C(O)[C@@H]1O[C@H]1C(=O)OC1CCCCCCC1` (relative stereo) [EP-36, cyclooctyl potassium epoxysuccinate], the “ID50 (amount of inhibitor for 50% inhibition)” value is recorded as 0.07 γ.

`O=C(OC1C2CC3CC(C2)CC1C3)[C@@H]1O[C@H]1C(=O)OC1C2CC3CC(C2)CC1C3` (relative stereo) [EP-37, di-2-adamantyl epoxysuccinate]: the “ID50 (amount of inhibitor for 50% inhibition)” value is listed as 0.22 γ.

For `O=C(O)[C@@H]1O[C@H]1C(=O)OC1C2CC3CC(C2)CC1C3` (relative stereo) [EP-38, 2-adamantyl potassium epoxysuccinate], the “ID50 (amount of inhibitor for 50% inhibition)” value is reported as 0.06 γ.

`O=C(OCC1CC1)[C@@H]1O[C@H]1C(=O)OCC1CC1` (relative stereo) [EP-39, dicyclopropanemethyl epoxysuccinate]: the “ID50 (amount of inhibitor for 50% inhibition)” value is recorded as 4.39 γ.

Consider `O=C(O)[C@@H]1O[C@H]1C(=O)OCC1CC1` (relative stereo) [EP-40, cyclopropanemethyl potassium epoxysuccinate], for which the “ID50 (amount of inhibitor for 50% inhibition)” value is given as 0.34 γ.

In the case of `O=C(OCC1CCCCC1)[C@@H]1O[C@H]1C(=O)OCC1CCCCC1` (relative stereo) [EP-41, dicyclohexanemethyl epoxysuccinate], the “ID50 (amount of inhibitor for 50% inhibition)” value is given as 0.27 γ.

Turning to `O=C(O)[C@@H]1O[C@H]1C(=O)OCC1CCCCC1` (relative stereo) [EP-42, cyclohexanemethyl potassium epoxysuccinate], the “ID50 (amount of inhibitor for 50% inhibition)” value is 0.06 γ.

On to `O=C(OCC1CCCC1)[C@@H]1O[C@H]1C(=O)OCC1CCCC1` (relative stereo) [EP-43, dicyclopentanemethyl epoxysuccinate], for which the “ID50 (amount of inhibitor for 50% inhibition)” value is 0.45 γ.

For the compound `O=C(O)[C@@H]1O[C@H]1C(=O)OCC1CCCC1` (relative stereo) [EP-44, cyclopentanemethyl potassium epoxysuccinate], the “ID50 (amount of inhibitor for 50% inhibition)” value is given as 0.07 γ.

With `O=C(OCC12CC3CC(CC(C3)C1)C2)[C@@H]1O[C@H]1C(=O)OCC12CC3CC(CC(C3)C1)C2` (relative stereo) [EP-47, di-1-adamantanemethyl epoxysuccinate], the “ID50 (amount of inhibitor for 50% inhibition)” value is listed as 0.25 γ.

As for `O=C(O)[C@@H]1O[C@H]1C(=O)OCC12CC3CC(CC(C3)C1)C2` (relative stereo) [EP-48, 1-adamantanemethyl potassium epoxysuccinate], the “ID50 (amount of inhibitor for 50% inhibition)” value is reported as 0.08 γ.

As to `O=C(OCCC12CC3CC(CC(C3)C1)C2)[C@@H]1O[C@H]1C(=O)OCCC12CC3CC(CC(C3)C1)C2` (relative stereo) [EP-49, di-2-(1-adamantane)ethyl epoxysuccinate], the “ID50 (amount of inhibitor for 50% inhibition)” value was 0.85 γ.

Consider `O=C(O)[C@@H]1O[C@H]1C(=O)OCCC12CC3CC(CC(C3)C1)C2` (relative stereo) [EP-50, 2-(1-adamantane)ethyl potassium epoxysuccinate], for which the “ID50 (amount of inhibitor for 50% inhibition)” value is 0.09 γ.

Consider `O=C(OC1CC2CCC1CC2)[C@@H]1O[C@H]1C(=O)OC1CC2CCC1CC2` (relative stereo) [EP-51, dibicyclo [2,2,2] octyl epoxysuccinate], for which the “ID50 (amount of inhibitor for 50% inhibition)” value is 0.30 γ.

Consider `O=C(O)[C@@H]1O[C@H]1C(=O)OC1CC2CCC1CC2` (relative stereo) [EP-52, bicyclo [2,2,2] octyl potassium epoxysuccinate], for which the “ID50 (amount of inhibitor for 50% inhibition)” value is listed as 0.07 γ.

In the case of `O=C(OCCC1CCCC1)[C@@H]1O[C@H]1C(=O)OCCC1CCCC1` (relative stereo) [EP-59, di-2-cyclopentaneethyl epoxysuccinate], the “ID50 (amount of inhibitor for 50% inhibition)” value is listed as 0.18 γ.

As for `O=C(O)[C@@H]1O[C@H]1C(=O)OCCC1CCCC1` (relative stereo) [EP-60, 2-cyclopentaneethylpotassium epoxysuccinate], the “ID50 (amount of inhibitor for 50% inhibition)” value is listed as 0.10 γ.

Consider `O=C(OCCC1CCCCC1)[C@@H]1O[C@H]1C(=O)OCCC1CCCCC1` (relative stereo) [EP-61, di-2-cyclohexaneethyl epoxysuccinate], for which the “ID50 (amount of inhibitor for 50% inhibition)” value is recorded as 1.18 γ.

For `O=C(O)[C@@H]1O[C@H]1C(=O)OCCC1CCCCC1` (relative stereo) [EP-62, 2-cyclohexaneethyl potassium epoxysuccinate], the “ID50 (amount of inhibitor for 50% inhibition)” value is 0.08 γ.

For `O=C(OCCCC1CCCC1)[C@@H]1O[C@H]1C(=O)OCCCC1CCCC1` (relative stereo) [EP-63, di-3-cyclopentanepropyl epoxysuccinate], the “ID50 (amount of inhibitor for 50% inhibition)” value is reported as 54.82 γ.

Regarding `O=C(O)[C@@H]1O[C@H]1C(=O)OCCCC1CCCC1` (relative stereo) [EP-64, 3-cyclopentanepropyl potassium epoxysuccinate], the “ID50 (amount of inhibitor for 50% inhibition)” value was 0.10 γ.

As for `O=C(OCCCC1CCCCC1)[C@@H]1O[C@H]1C(=O)OCCCC1CCCCC1` (relative stereo) [EP-65, di-3-cyclohexanepropyl epoxysuccinate], the “ID50 (amount of inhibitor for 50% inhibition)” value is listed as 69.44 γ.

Turning to `O=C(O)[C@@H]1O[C@H]1C(=O)OCCCC1CCCCC1` (relative stereo) [EP-66, 3-cyclohexanepropyl potassium epoxysuccinate], the “ID50 (amount of inhibitor for 50% inhibition)” value is listed as 0.08 γ.
